For one compound, growth results are on record in US20120189603A1, “STORAGE-STABLE, SYNERGISTIC MICROBICIDAL CONCENTRATES CONTAINING AN ISOTHIAZOLONE, AN AMINE AND AN OXIDIZING AGENT” (L"AIR LIQUIDE, SOCIETE ANONYME POUR L'ETUDE ET L' …, priority 2009, published 2012).

Common to all, as to assay: Germ-count reduction test, sterile town water, pH adjusted to 8.2
Common to all, as to design: key: −: growth-free; +: slight growth; ++: moderate growth; +++: considerable growth; ++++: massive growth; L: lawn-like growth
Common to all, as to settings: +0.01% 2

In one assay the test system is C. albicans. The assay is classed as cell-based, Candida albicans. The protocol:
(§1) The pH was adjusted to 8.2 with HCl.
A 4-day-old Candida albicans culture (CSA+grape sugar) is elutriated with 5 ml of physiological sodium chloride solution and adjusted in accordance with a barium sulphate standard (see DVG Guideline). The titre of the Candida albicans suspension is 10^8 CFU/ml.
(§2) A dilution series of four concentrations is prepared from the active ingredient to be tested and poured into 10 ml sterile tubes. One dilution series is required per test germ. Each tube is inoculated with 0.1 ml of the individual germ suspensions.
(§3) […] The bacteria are streaked on CSA and incubated for 48 hours at 37° C. (Pseudomonas aeruginosa and Staphylococcus aureus) or 25° C. (Pseudomonas fluorescens/Pseudomonas putida). The fungi are streaked on Sabouraud agar and incubated for 48 hours at 37° C. (Candida albicans) and 25° C. (Aspergillus niger).

For the next assay, the system named is E. coli. Format: cell-based.
Another assay has as its system S. aureus. Format: cell-based, Staphylococcus aureus. As to the method:
as §1
(§4) 24-Hour CSL cultures are prepared from 24-hour CS slant agar cultures of Staphylococcus aureus/Pseudomonas aeruginosa. Incubation takes place at 37° C.
(§5) The titre of the bacteria suspensions is ca. 10^9 CFU/ml.
as §2, §3

The next assay has as its system A. niger. The assay is classed as cell-based, Aspergillus niger. The protocol:
as §1
A 7-14-day-old Aspergillus niger culture on Sabouraud agar is elutriated with 5 ml of NaCl, filtered through a glass filter containing glass wool and topped up to 200 ml. This suspension has a titre of ca. 10^7 CFU/ml.
as §2, §3

Another assay concerns P. funiculosum. Format: cell-based.
For a further assay, the system named is P. aeruginosa. Format: cell-based, Pseudomonas aeruginosa. The protocol: as §1, §4, §5, §2, §3

As to `CCCCCCCCCCCCN(CCCN)CCCN` [compound 2, bis(aminopropyl)dodecylamine], the growth result in the assay with C. albicans (1 h) is “−”; in the assay with C. albicans (3 h), “−”; in the assay with C. albicans (6 h), “−”; with C. albicans (24 h), “−”; in the assay on E. coli (1 h) it was “+”; in the assay with E. coli (3 h) it was “−”. Also, the growth result with E. coli (6 h), with E. coli (24 h), in the assay with S. aureus (1 h), with S. aureus (3 h), with S. aureus (6 h) and with S. aureus (24 h) was “−” in each case. Further, the growth result in the assay on A. niger (1 h), in the assay with A. niger (3 h), with A. niger (6 h), with A. niger (24 h), with P. funiculosum (1 h) and with P. funiculosum (3 h) was “−” each time. In addition, the growth entry with P. funiculosum (6 h) is listed as “−”; in the assay with P. funiculosum (24 h) it was “−”; in the assay with P. aeruginosa (1 h), “+”; with P. aeruginosa (3 h), “+”; in the assay with P. aeruginosa (6 h) it was “−”; in the assay with P. aeruginosa (24 h), “−”.
